Experimental data reported in patent US8828908B2, “Herbicidally active bicyclic 1,3-dione compounds” (Syngenta Limited, priority 2007, dated 2014).

Legend:
Assay type in all cases: in vivo
[1] = system: Avena fatua (AVEFA); experiment: Example B post-emergence herbicidal greenhouse test; settings: 360 h, evaluated after 15 days, 100=total damage to plant, 0=no damage
Protocol: (§1) Seeds of a variety of test species were sown in standard soil in pots. After cultivation for one day (pre-emergence) or after 10 days cultivation (post-emergence) under controlled conditions in a glasshouse, the plants were sprayed with an aqueous spray solution derived from the formulation of the technical active ingredient in 0.6 ml acetone and 45 ml formulation solution containing 10.6% Emulsogen EL (Registry number 61791-12-6), 42.2% N-methylpyrrolidone, 42.2% dipropylene glycol monomethyl ether (Registry number 34590-94-8) and 0.2% X-77 (Registry number 11097-66-8). The test plants were then grown in a greenhouse under optimum conditions until, 15 days later for post-emergence and 20 days for pre-emergence, the test was evaluated (100=total damage to plant; 0=no damage to plant).
(§2) Alopecurus myosuroides (ALOMY), Avena fatua (AVEFA), Lolium perenne (LOLPE), Setaria faberi (SETFA), Digitaria sanguinalis (DIGSA), Echinochloa crus-galli (ECHCG)

[2] = system: Echinochloa crus-galli (ECHCG); experiment: as above; settings: 360 h, evaluated after 15 days, 100=total damage to plant, 0=no damage
Protocol: as §1, §2

[3] = system: Lolium perenne (LOLPE); experiment: as above; settings: 360 h, evaluated after 15 days, 100=total damage to plant, 0=no damage
Protocol: as §1, §2

[4] = system: Digitaria sanguinalis (DIGSA); experiment: as above; settings: 360 h, evaluated after 15 days, 100=total damage to plant, 0=no damage
Protocol: as §1, §2

[5] = system: Setaria faberi (SETFA); experiment: as above; settings: 360 h, evaluated after 15 days, 100=total damage to plant, 0=no damage
Protocol: as §1, §2

[6] = system: Alopecurus myosuroides (ALOMY); experiment: as above; settings: 360 h, evaluated after 15 days, 100=total damage to plant, 0=no damage
Protocol: as §1, §2

[7] = system: Avena fatua (AVEFA); experiment: Example A pre-emergence herbicidal glasshouse test; settings: 312 h, Rate 250 g/ha, evaluated after 13 days, 100=total damage to plant, 0=no damage to plant
Summary of the method: (§3)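 Potted plants grown from seed in a controlled glasshouse (24 °C day, 16 °C night; 14 h light; 65% humidity) were sprayed either pre-emergence, one day after sowing, or post-emergence after 8 days. Vehicle: acetone/water (50:50), 0.5% Tween 20. Scoring after 13 days, 0 = undamaged.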

[8] = system: Echinochloa crus-galli (ECHCG); experiment: Example A pre-emergence herbicidal glasshouse test; settings: 312 h, Rate 250 g/ha, evaluated after 13 days, 100=total damage to plant, 0=no damage to plant
Summary of the method: as §3

[9] = system: Setaria faberi (SETFA); experiment: Example A pre-emergence herbicidal glasshouse test; settings: 312 h, Rate 250 g/ha, evaluated after 13 days, 100=total damage to plant, 0=no damage to plant
Summary of the method: as §3

[10] = system: Amaranthus retroflexus (AMARE); experiment: Example A pre-emergence herbicidal glasshouse test; settings: 312 h, Rate 250 g/ha, evaluated after 13 days, 100=total damage to plant, 0=no damage to plant
Summary of the method: as §3

[11] = system: Alopecurus myosuroides (ALOMY); experiment: Example A pre-emergence herbicidal glasshouse test; settings: 312 h, Rate 250 g/ha, evaluated after 13 days, 100=total damage to plant, 0=no damage to plant
Summary of the method: as §3

[12] = system: Avena fatua (AVEFA); experiment: Example A post-emergence herbicidal glasshouse test; settings: 312 h, evaluated after 13 days, 100=total damage to plant, 0=no damage
Summary of the method: as §3

[13] = system: Echinochloa crus-galli (ECHCG); experiment: as above; settings: 312 h, evaluated after 13 days, 100=total damage to plant, 0=no damage
Summary of the method: as §3

[14] = system: Setaria faberi (SETFA); experiment: as above; settings: 312 h, evaluated after 13 days, 100=total damage to plant, 0=no damage
Summary of the method: as §3

[15] = system: Amaranthus retroflexus (AMARE); experiment: as above; settings: 312 h, evaluated after 13 days, 100=total damage to plant, 0=no damage
Summary of the method: as §3

[16] = system: Alopecurus myosuroides (ALOMY); experiment: as above; settings: 312 h, evaluated after 13 days, 100=total damage to plant, 0=no damage
Summary of the method: as §3

[17] = system: Avena fatua (AVEFA); experiment: Example B pre-emergence herbicidal greenhouse test; settings: 480 h, evaluated after 20 days, 100=total damage to plant, 0=no damage
Protocol: as §1, §2

[18] = system: Echinochloa crus-galli (ECHCG); experiment: Example B pre-emergence herbicidal greenhouse test; settings: 480 h, evaluated after 20 days, 100=total damage to plant, 0=no damage
Protocol: as §1, §2

[19] = system: Lolium perenne (LOLPE); experiment: Example B pre-emergence herbicidal greenhouse test; settings: 480 h, evaluated after 20 days, 100=total damage to plant, 0=no damage
Protocol: as §1, §2

[20] = system: Digitaria sanguinalis (DIGSA); experiment: Example B pre-emergence herbicidal greenhouse test; settings: 480 h, evaluated after 20 days, 100=total damage to plant, 0=no damage
Protocol: as §1, §2

[21] = system: Setaria faberi (SETFA); experiment: Example B pre-emergence herbicidal greenhouse test; settings: 480 h, evaluated after 20 days, 100=total damage to plant, 0=no damage
Protocol: as §1, §2

[22] = system: Alopecurus myosuroides (ALOMY); experiment: Example B pre-emergence herbicidal greenhouse test; settings: 480 h, evaluated after 20 days, 100=total damage to plant, 0=no damage
Protocol: as §1, §2

SMILES	pest or weed control at 125 g/ha [1] [%]	pest or weed control at 125 g/ha [2] [%]	pest or weed control at 125 g/ha [3] [%]	pest or weed control at 125 g/ha [4] [%]	pest or weed control at 125 g/ha [5] [%]	pest or weed control at 125 g/ha [6] [%]	pest or weed control at 250 g/ha [7] [%]	pest or weed control at 250 g/ha [8] [%]	pest or weed control at 250 g/ha [9] [%]	pest or weed control at 250 g/ha [10] [%]	pest or weed control at 250 g/ha [11] [%]	pest or weed control at 250 g/ha [12] [%]	pest or weed control at 250 g/ha [13] [%]	pest or weed control at 250 g/ha [14] [%]	pest or weed control at 250 g/ha [15] [%]	pest or weed control at 250 g/ha [16] [%]	pest or weed control at 250 g/ha [17] [%]	pest or weed control at 250 g/ha [18] [%]	pest or weed control at 250 g/ha [19] [%]	pest or weed control at 250 g/ha [20] [%]	further results
CCc1ccc(-c2ccc(Cl)c(F)c2)cc1C1=C(O)[C@H]2CC[C@H](C2)C1=O (single isomer, unassigned) [Compound T36]	100	100	30	100	100	80	50	100	100	0	70	100	100	100	0	90	60	100	90	100	pest or weed control at 250 g/ha [21]: 90%; pest or weed control at 250 g/ha [22]: 70%
CCc1ccc(-c2ccc(Cl)c(C(F)(F)F)c2)cc1C1=C(O)[C@H]2CC[C@H](C2)C1=O (single isomer, unassigned) [Compound T37]	90	100	30	100	100	70	0	90	90	0	50	90	100	100	20	90	60	100	40	90	pest or weed control at 250 g/ha [21]: 100%; pest or weed control at 250 g/ha [22]: 70%
CCc1ccc(-c2ccc(F)c(Cl)c2)cc1C1=C(O)[C@H]2CC[C@H](C2)C1=O (single isomer, unassigned) [Compound T39]	20	80	10	80	70	0	30	100	100	20	50	30	100	100	0	60	40	90	90	90	pest or weed control at 250 g/ha [21]: 90%; pest or weed control at 250 g/ha [22]: 70%
CCc1ccc(-c2ccc(Cl)cc2F)cc1C1=C(O)[C@H]2CC[C@H](C2)C1=O (single isomer, unassigned) [Compound T41]	100	100	70	100	100	80	100	90	100	0	60	100	100	100	0	60	60	100	100	100	pest or weed control at 250 g/ha [21]: 100%; pest or weed control at 250 g/ha [22]: 90%
CCc1ccc(-c2ccc(Cl)cc2OC)cc1C1=C(O)[C@H]2CC[C@H](C2)C1=O (single isomer, unassigned) [Compound T43]	0	70	30	50	60	0	0	90	30	0	0	40	90	80	0	50	60	40	0	60	pest or weed control at 250 g/ha [21]: 20%; pest or weed control at 250 g/ha [22]: 0%
CCc1ccc(-c2ccc(Cl)cc2)cc1C1=C(O)[C@H]2C=C[C@H](CC2)C1=O (single isomer, unassigned) [Compound T55]	70	100	80	100	100	60	0	70	90	0	0	20	100	100	0	50	30	50	60	30	pest or weed control at 250 g/ha [21]: 10%; pest or weed control at 250 g/ha [22]: 10%
CCc1cc(-c2ccc(Cl)cc2)ccc1C1=C(OC(C)=O)[C@@H]2CC[C@@H](C2)C1=O [Compound P3]	80	80	80	90	80	90	40	70	80	0	60	80	100	100	0	90	10	50	50	70	pest or weed control at 250 g/ha [21]: 60%; pest or weed control at 250 g/ha [22]: 30%
CCc1ccc(-c2ccc(Cl)c(C)c2)cc1C1=C(O)[C@H]2CC[C@H](C2)C1=O [Compound T32, 3-(4′-chloro-4-ethyl-3′-methylbiphen-3-yl)bicyclo[3.2.1]octane-2,4-dione]	10	100	0	70	30	30	40	100	20	0	30	0	100	90	0	60	10	100	90	100	pest or weed control at 250 g/ha [21]: 60%; pest or weed control at 250 g/ha [22]: 90%
